Patent US20250320206A1, “STAT6 DEGRADERS” (Gilead Sciences, Inc., priority 2024, published 2025)

Columns and labels:
[1] = target: T1, STAT6 (Homo sapiens, UniProt P42226); experiment: Stat6 Degrader Assay (HiBiT based, HeLa LgBiT clone 4.14); format: cell-based; details: HeLa LgBiT clone 4.14 HiBiT-STAT6, 4-24 h incubation; values given for compounds with >80% Emax; geometric mean; read-out: STAT6 degradation DC50
T1 construct: These cells express endogenous STAT6; host or cells: HeLa LgBiT clone 4.14
T1 sequence (P42226 1-847): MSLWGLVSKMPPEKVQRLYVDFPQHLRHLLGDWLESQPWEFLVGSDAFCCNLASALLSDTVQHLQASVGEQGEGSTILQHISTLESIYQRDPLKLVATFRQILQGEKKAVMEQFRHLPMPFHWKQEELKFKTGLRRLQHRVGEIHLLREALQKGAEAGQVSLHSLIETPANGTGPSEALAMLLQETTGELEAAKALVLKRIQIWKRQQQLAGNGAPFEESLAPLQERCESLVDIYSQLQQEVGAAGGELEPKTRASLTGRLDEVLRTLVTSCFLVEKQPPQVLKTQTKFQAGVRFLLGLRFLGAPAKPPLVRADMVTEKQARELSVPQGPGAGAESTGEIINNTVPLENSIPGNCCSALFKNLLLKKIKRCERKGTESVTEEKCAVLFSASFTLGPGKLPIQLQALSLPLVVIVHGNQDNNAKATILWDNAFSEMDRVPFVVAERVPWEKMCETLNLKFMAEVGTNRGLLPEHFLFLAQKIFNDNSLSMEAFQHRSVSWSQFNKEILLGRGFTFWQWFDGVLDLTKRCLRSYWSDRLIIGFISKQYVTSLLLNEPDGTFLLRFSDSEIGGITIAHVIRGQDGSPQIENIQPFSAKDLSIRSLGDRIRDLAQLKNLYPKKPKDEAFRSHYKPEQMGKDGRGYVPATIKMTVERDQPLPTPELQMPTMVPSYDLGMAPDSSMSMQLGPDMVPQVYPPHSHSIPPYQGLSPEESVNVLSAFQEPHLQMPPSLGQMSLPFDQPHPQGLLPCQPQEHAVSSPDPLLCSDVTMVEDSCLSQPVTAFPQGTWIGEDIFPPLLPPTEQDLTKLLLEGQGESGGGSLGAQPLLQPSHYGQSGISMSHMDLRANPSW
In short: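 HeLa LgBiT clone 4.14 cells with CRISPR HiBiT-tagged endogenous STAT6, 5000 cells/well, compound dosed then incubated 4-24 h at 37° C, 5% CO2. Nano-Glo substrate added, 0.5 h, luminescence read as non-degraded STAT6. Terfenadine 50 μM (cell kill) defines 100% degradation.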

[2] = test system: Eotaxin-3 release in human whole blood stimulated with IL-4; experiment: Human Whole Blood Eotaxin-3 Assay (IL-4 stimulated eotaxin-3 release); format: cell-based; details: IL-4 stimulation, 48 h, values given for compounds with >80% Emax, geometric mean
In short: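 Lithium-heparin human whole blood preincubated 2 h at 37° C with 4-fold serially diluted compounds (0.5% DMSO), then stimulated with recombinant human IL-4 ([…]) for 48 h. Eotaxin-3 (CCL26) in supernatant quantified by MSD immunoassay.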

Row | Compound | DC50 [1] [nM] | EC50 [2] [nM]
1 | CNc1nc(=O)n(-c2ccnc3c2cc(CN2CCC(c4c(F)cc(C(=O)N5CCC(CN6CCN(Cc7ccc8c(c7)C7(CC7)C(=O)N8C7CCC(=O)NC7=O)C[C@@H]6C)CC5)cc4F)CC2)n3C)cc1F (stereo partly drawn) [Example 3h10, 3-(5′-(((S)-4-((1-(3,5-difluoro-4-(1-((4-(5-fluoro-4-(methylamino)-2-oxopyrimidin-1 (2H)-yl)-1-methyl-1H-pyrrolo[2,3-b]pyridin-2-yl)methyl)piperidin-4-yl)benzoyl)piperidin-4-yl)methyl)-3-methylpiperazin-1-yl)methyl)-2′-oxospiro[cyclopropane-1,3′-indolin]-1′-yl)piperidine-2,6-dione] | 3.2 | 4.8
2 | CNc1ccn(-c2ccnc3c2cc([C@H](C)N2CC=C(c4c(C)cc(C(=O)N5CCC(CN6CCN(Cc7ccc8c(c7)n(C7CC7)c(=O)n8C7CCC(=O)NC7=O)CC6)CC5)cc4F)CC2)n3C)c(=O)c1 (stereo partly drawn) [Example 3u122, 3-(3-cyclopropyl-5-((4-((1-(3-fluoro-5-methyl-4-(1-((S)-1-(1-methyl-4-(4-(methylamino)-2-oxopyridin-1 (2H)-yl)-1H-pyrrolo[2,3-b]pyridin-2-yl)ethyl)-1,2,3,6-tetrahydropyridin-4-yl)benzoyl)piperidin-4-yl)methyl)piperazin-1-yl)methyl)-2-oxo-2,3-dihydro-1H-benzo[d]imidazol-1-yl)piperidine-2,6-dione] | 1.2 | 0.6
3 | CNc1cc(=O)n(-c2ccnc3c2cc([C@H](C)N2CC=C(c4c(C)cc(C(=O)N5CCC(CN6CCN(Cc7ccc8c(c7)C7(CC7)C(=O)N8[C@@H]7CCC(=O)NC7=O)CC6)CC5)cc4F)CC2)n3C)cc1F (single isomer, unassigned) [Example 3u68] | 1 | 7.8
4 | CNc1cc(=O)n(-c2ccnc3c2cc([C@H](C)N2CC=C(c4c(C)cc(C(=O)N5CCC(CN6CCN(Cc7ccc8c(c7)n(C)c(=O)n8C7CCC(=O)NC7=O)CC6)CC5)cc4F)CC2)n3C)cc1F (stereo partly drawn) [Example 3u13, 3-(5-((4-((1-(3-fluoro-4-(1-((S)-1-(4-(5-fluoro-4-(methylamino)-2-oxopyridin-1 (2H)-yl)-1-methyl-1H-pyrrolo[2,3-b]pyridin-2-yl)ethyl)-1,2,3,6-tetrahydropyridin-4-yl)-5-methylbenzoyl)-piperidin-4-yl)methyl)piperazin-1-yl)methyl)-3-methyl-2-oxo-2,3-dihydro-1H-benzo[d]imidazol-1-yl)piperidine-2,6-dione] | 0.7 | 1
5 | CNc1c(F)cn(-c2ccnc3c2cc(CN2CCC(c4c(F)cc(C(=O)N5CCC(CN6CCN(Cc7ccc8c(c7)C7(CC7)C(=O)N8C7CCC(=O)NC7=O)C[C@@H]6C)CC5)cc4F)CC2)n3C)c(=O)c1F (stereo partly drawn) [Example 3u115, 3-(5′-(((S)-4-((1-(4-(1-((4-(3,5-difluoro-4-(methylamino)-2-oxopyridin-1 (2H)-yl)-1-methyl-1H-pyrrolo[2,3-b]pyridin-2-yl)methyl)piperidin-4-yl)-3,5-difluorobenzoyl)piperidin-4-yl)-methyl)-3-methylpiperazin-1-yl)methyl)-2′-oxospiro[cyclopropane-1,3′-indolin]-1′-yl)piperidine-2,6-dione] | 8.3 | 9.1
6 | CNc1cc(=O)n(-c2ccnc3c2cc([C@H](C)N2CC=C(c4c(C)cc(C(=O)N5CCC(CN6CCN(Cc7ccc8c(c7)C7(CC7)C(=O)N8C7CCC(=O)NC7=O)C[C@@H]6C)CC5)cc4F)CC2)n3C)cc1F (stereo partly drawn) [Example 3u164, 3-(5′-(((S)-4-((1-(3-fluoro-4-(1-((S)-1-(4-(5-fluoro-4-(methylamino)-2-oxopyridin-1 (2H)-yl)-1-methyl-1H-pyrrolo[2,3-b]pyridin-2-yl)ethyl)-1,2,3,6-tetrahydropyridin-4-yl)-5-methyl-benzoyl)piperidin-4-yl)methyl)-3-methylpiperazin-1-yl)methyl)-2′-oxospiro[cyclopropane-1,3′-indolin]-1′-yl)piperidine-2,6-dione] | 1 | 2
7 | CNc1cc(=O)n(-c2ccnc3c2cc([C@H](C)N2CC=C(c4c(C)cc(C(=O)N5CCC(CN6CCN(Cc7ccc8c(c7)C(C)(C)C(=O)N8[C@H]7CCC(=O)NC7=O)CC6)CC5)cc4F)CC2)n3C)cc1F (single isomer, unassigned) [Example 3u88] | 3.3 | 12.9

Other lines, results leading:

Row | DC50 [1] [nM] | EC50 [2] [nM] | Compound
8 | 0.6 | 0.9 | CNc1ccn(-c2ccnc3c2cc([C@H](C)N2CC=C(c4c(C)cc(C(=O)N5CCC(CN6CCN(Cc7ccc8c(c7)C7(CC7)C(=O)N8[C@@H]7CCC(=O)NC7=O)C[C@@H]6C)CC5)cc4F)CC2)n3C)c(=O)c1 (single isomer, unassigned) [Example 3u192]
9 | 0.04 | 0.3 | CNc1ccn(-c2ccnc3c2cc([C@H](C)N2CC=C(c4c(C)cc(C(=O)N(C)c5ccc(C6CCN(Cc7ccc8c(c7)n(C)c(=O)n8[C@@H]7CCC(=O)NC7=O)CC6)cc5)cc4F)CC2)n3C)c(=O)c1 (single isomer, unassigned) [Example 3u227]
10 | 0.5 | 1.1 | CNc1ccn(-c2ccnc3c2cc([C@H](C)N2CC=C(c4c(F)cc(C(=O)N5CCC(CN6CCN(Cc7ccc8c(c7)n(C7CC7)c(=O)n8C7CCC(=O)NC7=O)C[C@@H]6C)CC5)cc4F)CC2)n3C)c(=O)c1 (stereo partly drawn) [Example 3u210, 3-(3-cyclopropyl-5-(((S)-4-((1-(3,5-difluoro-4-(1-((S)-1-(1-methyl-4-(4-(methylamino)-2-oxopyridin-1 (2H)-yl)-1H-pyrrolo[2,3-b]pyridin-2-yl)ethyl)-1,2,3,6-tetrahydropyridin-4-yl)benzoyl)-piperidin-4-yl)methyl)-3-methylpiperazin-1-yl)methyl)-2-oxo-2,3-dihydro-1H-benzo[d]imidazol-1-yl)piperidine-2,6-dione]
11 | 1.4 | 1.7 | CNc1ccn(-c2ccnc3c2cc([C@H](C)N2CC=C(c4c(C)cc(C(=O)N5CCC(CN6CCN(c7ccc8c(c7)n(C7CC7)c(=O)n8[C@H]7CCC(=O)NC7=O)CC6)CC5)cc4F)CC2)n3C)c(=O)c1 (single isomer, unassigned) [Example 3u279]
12 | 1.9 | 2.4 | CNc1ccn(-c2ccnc3c2cc([C@H](C)N2CC=C(c4c(C)cc(C(=O)N5CCC(CN6CCN(Cc7cc8c(cc7F)N(C7CCC(=O)NC7=O)C(=O)C87CC7)C[C@@H]6C)CC5)cc4F)CC2)n3C)c(=O)c1 (stereo partly drawn) [Example 3u193, 3-(6′-fluoro-5′-(((S)-4-((1-(3-fluoro-5-methyl-4-(1-((S)-1-(1-methyl-4-(4-(methyl-amino)-2-oxopyridin-1 (2H)-yl)-1H-pyrrolo[2,3-b]pyridin-2-yl)ethyl)-1,2,3,6-tetrahydropyridin-4-yl)benzoyl)piperidin-4-yl)methyl)-3-methylpiperazin-1-yl)methyl)-2′-oxospiro[cyclopropane-1,3′-indolin]-1′-yl)piperidine-2,6-dione]
13 | 1.5 | 1.1 | CNc1ccn(-c2ccnc3c2cc(CN2CCC(c4c(F)cc(C(=O)N5CCC(CN6CCN(Cc7ccc8c(c7)C7(CC7)C(=O)N8C7CCC(=O)NC7=O)C[C@@H]6C)CC5)cc4F)CC2)n3C)c(=O)c1 (stereo partly drawn) [Example 3u222, 3-(5′-(((S)-4-((1-(3,5-difluoro-4-(1-((1-methyl-4-(4-(methylamino)-2-oxopyridin-1 (2H)-yl)-1H-pyrrolo[2,3-b]pyridin-2-yl)methyl)piperidin-4-yl)benzoyl)piperidin-4-yl)methyl)-3-methylpiperazin-1-yl)methyl)-2′-oxospiro[cyclopropane-1,3′-indolin]-1′-yl)piperidine-2,6-dione]
14 | 3.4 | 5.2 | CNc1ccn(-c2ccnc3c2cc([C@H](C)N2CC=C(c4c(F)cc(C(=O)N5CCC(CN6CCN(Cc7ccc8c(c7)C(C)(C)C(=O)N8[C@@H]7CCC(=O)NC7=O)C[C@@H]6C)CC5)cc4F)CC2)n3C)c(=O)c1 (single isomer, unassigned) [Example 3u203]
15 | 1.3 | 2.4 | CNc1cc(=O)n(-c2ccnc3c2cc(CN2CCC(c4c(F)cc(C(=O)N5CCC(CN6CCN(Cc7ccc8c(c7)C7(CC7)C(=O)N8[C@H]7CCC(=O)NC7=O)C[C@@H]6C)CC5)cc4F)CC2)n3C)cc1F (single isomer, unassigned) [Example 3u220]
